Experimental data reported in ChEMBL document CHEMBL1759985, “In vitro anticancer activity and evaluation of DNA duplex binding affinity of phenyl-substituted indoloquinolines” (Bioorg Med Chem Lett, 2011).
Activity calls are given as the source filed them. The calls are words filed in the database; no cut-off is given here.

What was measured:
Nucleic Acid [1] = test: Binding affinity to duplex DG DNA in 0.02 M cacodylate buffer assessed as melting temperature at 10 uM at pH 7 by UV spectrophotometer analysis; format: nucleic-acid assay
RT-4 = test: Cytotoxicity against human RT4 cells after 92 hrs by microtiter assay; format: functional, cell-based; details: RT-4, 92 h
A-427 = test: Cytotoxicity against human A427 cells after 92 hrs by microtiter assay; format: functional, cell-based; details: A-427, 92 h
DAN-G = test: Cytotoxicity against human DAN-G cells after 92 hrs by microtiter assay; format: functional, cell-based
Nucleic Acid [2] = test: Binding affinity to duplex DG DNA in 0.02 M cacodylate buffer assessed as change in melting temperature at 10 uM at pH 7 by UV spectrophotometer analysis in presence of 0.1 M sodium chloride; format: nucleic-acid assay
Nucleic Acid [3] = test: Binding affinity to duplex DM DNA in 0.02 M cacodylate buffer assessed as melting temperature at 10 uM at pH 7 by UV spectrophotometer analysis in presence of 0.1 M sodium chloride; format: nucleic-acid assay
[4] = Cytotoxicity against human LCLC-103H cells after 92 hrs by microtiter assay; format: functional, cell-based
Nucleic Acid [5] = test: Binding affinity to duplex DG DNA at 0.75 uM by fluorescence emission spectral analysis; format: nucleic-acid assay
Nucleic Acid [6] = test: Binding affinity to duplex DA DNA in 0.02 M cacodylate buffer assessed as melting temperature at 10 uM at pH 7 by UV spectrophotometer analysis; format: nucleic-acid assay
5637 = test: Cytotoxicity against human 5637 cells assessed after 92 hrs by microtiter assay; format: functional, cell-based; details: Homo sapiens, 5637, 92 h
MCF7 = test: Cytotoxicity against human MCF7 cells after 92 hrs by microtiter assay; format: functional, cell-based; details: MCF7, 92 h
Nucleic Acid [7] = test: Binding affinity to duplex DG DNA in 0.02 M cacodylate buffer assessed as melting temperature at 10 uM at pH 7 by UV spectrophotometer analysis in presence of 0.1 M sodium chloride; format: nucleic-acid assay
Nucleic Acid [8] = test: Binding affinity to duplex DA DNA in 0.02 M cacodylate buffer assessed as change in melting temperature at 10 uM at pH 7 by UV spectrophotometer analysis in presence of 0.1 M sodium chloride; format: nucleic-acid assay
Nucleic Acid [9] = test: Binding affinity to duplex DM DNA in 0.02 M cacodylate buffer assessed as change in melting temperature at 10 uM at pH 7 by UV spectrophotometer analysis; format: nucleic-acid assay
Nucleic Acid [10] = test: Binding affinity to duplex DA DNA in 0.02 M cacodylate buffer assessed as melting temperature at 10 uM at pH 7 by UV spectrophotometer analysis in presence of 0.1 M sodium chloride; format: nucleic-acid assay
Nucleic Acid [11] = test: Displacement of ethidium bromide from duplex DG DNA after 5 mins; format: nucleic-acid assay
Nucleic Acid [12] = test: Binding affinity to duplex DG DNA in 0.02 M cacodylate buffer assessed as change in melting temperature at 10 uM at pH 7 by UV spectrophotometer analysis; format: nucleic-acid assay
Nucleic Acid [13] = test: Binding affinity to duplex DM DNA in 0.02 M cacodylate buffer assessed as melting temperature at 10 uM at pH 7 by UV spectrophotometer analysis; format: nucleic-acid assay
Nucleic Acid [14] = test: Binding affinity to duplex DG DNA assessed as DNA intercalation by circular dichroism spectra analysis; format: nucleic-acid assay
Nucleic Acid [15] = test: Binding affinity to duplex DM DNA in 0.02 M cacodylate buffer assessed as change in melting temperature at 10 uM at pH 7 by UV spectrophotometer analysis in presence of 0.1 M sodium chloride; format: nucleic-acid assay
Nucleic Acid [16] = test: Binding affinity to duplex DA DNA in 0.02 M cacodylate buffer assessed as change in melting temperature at 10 uM at pH 7 by UV spectrophotometer analysis; format: nucleic-acid assay

Row | Tm (Nucleic Acid [1]) [°C] | ΔTm (Nucleic Acid [2]) [°C] | Tm (Nucleic Acid [3]) [°C] | Tm (Nucleic Acid [6]) [°C] | Tm (Nucleic Acid [7]) [°C] | ΔTm (Nucleic Acid [8]) [°C] | ΔTm (Nucleic Acid [9]) [°C] | Tm (Nucleic Acid [10]) [°C] | ΔTm (Nucleic Acid [12]) [°C] | Tm (Nucleic Acid [13]) [°C] | ΔTm (Nucleic Acid [15]) [°C] | ΔTm (Nucleic Acid [16]) [°C] | SMILES | IC50 (RT-4) [µM] | IC50 (A-427) [µM] | IC50 (DAN-G) [µM] | IC50 [4] [µM] | IC50 5637 [µM] | IC50 (MCF7) [µM] | also measured
1 | 42.4 | -0.5 | 40.6 | 35.3 | 52 | 0.5 | 3.1 | 45.3 | 1.7 | 32.8 | 0.5 | 2.5 | COc1cccc2c(-c3ccc(C(=O)NCCN(C)C)cc3)c3[nH]c4c(OC)cccc4c3nc12 | 3.6 | 1.7 | 3.6 | 3.2 | 2.1 | 2.9 | Activity (Nucleic Acid [5]): Active; C50 (Nucleic Acid [11]): 93 µM; Activity (Nucleic Acid [14]): Active
2 |  |  |  |  |  |  |  |  |  |  |  |  | COC(=O)c1ccc(-c2c3cccc(C)c3nc3c2[nH]c2c(C)cccc23)cc1 | > 20 | > 20 | > 20 | > 20 | > 20 | 13.8 | 
3 | 41.5 | -0.9 | 40.3 | 34.3 | 51.6 | 0.3 | 1 | 45.1 | 0.8 | 30.7 | 0.2 | 1.5 | Cc1cccc2c(-c3ccc(C(=O)NCCN(C)C)cc3)c3[nH]c4c(C)cccc4c3nc12 | 4.2 | 3.2 | 2.6 | 3.7 | 3.2 | 3 | 
4 |  |  |  |  |  |  |  |  |  |  |  |  | COC(=O)c1ccc(-c2c3cccc(OC)c3nc3c2[nH]c2c(OC)cccc23)cc1 | > 20 | 16.6 | > 20 | > 20 | 11 | > 20 | 
